Measured values taken from patent US12410220B2, “Modulation of mammalian cell lineage by synthetic immodulins” (priority 2021, dated 2025).
Marks after values point to notes of the source that are not given here. Square brackets hold non-standard residues; d marks the D form. Ends that are not written are not given here. Peptide text beside a SMILES is read from it. * marks the point of attachment. Pentanoyl(2-Pr) = CCCC(CCC)C(=O)*; Decanoyl = CCCCCCCCCC(=O)*

How the values were obtained:
[1] = system: HFF-1 human fibroblast cell line; experiment: Collagen-1 ELISA in HFF-1 dermal fibroblasts; assay type: cell-based; conditions: peptide 2 uM, 72 hour incubation
Description: Immodulin peptides have potential untility in the field of cosmetics. HFF-1 human fibroblast cell line was obtained from the American Type Culture Collection (ATCC). Cells were grown in a T-75 flask in DMEM Medium containing 10% fetal bovine serum and penicillin-streptomycin at 37° C. in a humidified, 5% CO2 incubator. Cells (100 µl, 2,000 cells/well) were plated in a 96-well plate and incubated overnight at 37° C. in a humidified, 5% CO2 incubator. Next day, 10 µl/well of compounds were added (quadruplicate wells). After 72 hour incubation with the compound, supernatants were collected for Collagen-1 ELISA assay and cell viability was measured in a luminometer after the addition of 100 IL/well CellTiterGlo reagent (Promega Inc, Madison, WI) as recommended by the manufacturer. Collagen stimulating activity of immodulin peptides in HFF-1 dermal fibroblasts: Peptides were added to cells at 2 uM. COL1 immunoreactivity was measured in the supernatants of cultured cells by ELISA using a rabbit monoclonal anti-COL1 primary antibody (Abcam, Cambridge, MA). Control (buffer) value of immunoreactivity was set to 100.

[2] = Ferric iron-binding assay of biotinylated immodulin peptides; conditions: N-terminally biotinylated peptide, 400 ng per well, 60 min room temperature; immX3AVD = 100
Description: N-terminally biotinylated versions of the peptides listed below were used in ferric iron-binding assays involving either an Alexa488-labeled streptavidin protocol (Binding Assay 1) or FITC-NTA assay (Binding Assay 2). Fluorescence was standardized to binding with immX3AVD control peptide (100) and the average of multiple experiments using both protocols is shown. P values are shown relative to the control immX3AVD peptide (**<0.05). D-amino acid residues are underlined in the sequences and the extension tripeptide of immX peptides is shown in bold font. Binding Assay 1 was done as follows: NTA coated 96-well plates (G-Biosciences, St. Louis, MO) were charged with ferric chloride and contacted with equimolar biotinylated peptide: streptavidin-A488 complex (400 ng peptide per well) for 60 min at room temperature, washed with phosphate-buffered saline (PBS) and read at 525 nm in a fluorescence counter. Binding Assay 2 was done as follows: Streptavidin coated 96-well plates (G-Biosciences, St. Louis, MO) were contacted with 400 ng peptide per well in PBS buffer for 60 minutes at room temperature, washed in PBS, then contacted with FITC-NTA (TRC, Toronto, Canada) complexed with equimolar ferric chloride (10× molar equivalent per well) for 60 min at room temperature, washed with PBS and read at 525 nm in a fluorescence counter.

[3] = Experiment 4D binding to FITC-labelled hyaluronic acid; conditions: biotinylated peptide 1 ug/well; 1 ug FITC-labelled hyaluronic acid, 90 minutes
Description: (§1) Streptavidin-coated 96-well plates (G-Biosciences, St. Louis, MO) were pre-treated with biotinylated peptides [see Example 1 for key] at 1 ug/well, at room temperature for 60 minutes. The plate was washed with PBS buffer and then 1 ug FITC-labelled heparin or hyaluronic acid in 100 uL PBS buffer was added per well (all tests in quadruplicate). Incubation proceeded for 90 minutes at room temperature, followed by two PBS washes. The plate was read in a standard laboratory fluorometer (488/525 nm exitation/[…]) and the counts normalized for immX3 peptide binding=100. Values statistically above background are shown in bold font. **p<0.05 versus immX3AVD.

[4] = Experiment 4D binding to FITC-labelled heparin; conditions: biotinylated peptide 1 ug/well; 1 ug FITC-labelled heparin, 90 minutes
Description: as §1

[5] = system: rat scald-endotoxemia model; experiment: Experiment 5B rat scald-endotoxemia model; assay type: in vivo, Sprague Dawley rats
Description: Experiment 5B. This study explores the effect of immX extensions on sV-nephrilin (SEQ ID NO:31) vs V-nephrilin, as well as in a longer peptide also containing the immX extension (Traumatin-3N1A: SEQ ID NO:35) on in vivo efficacy in a rat scald-endotoxemia model. Animals were treated with peptides using a widely used protocol previously described (see, for example, U.S. Pat. No. 10,369,191). Adult Sprague Dawley rats of both sexes (250-300 gm, Charles River Laboratories, Wilmington, MA, USA) were injected with peptide plus equimolar ferric iron once daily by subcutaneous bolus injection, days 1-7; Treatment group sizes were (n=6): group S=sham-treated; group B=burn+vehicle; group V=burn+1 mg/kg V-nephrilin (V); group sV=burn+1 mg/kg sV-nephrilin (immX3N1sV); group T=burn+1 mg/kg Traumatin-3N1A. The first dose was administered after completion of the scald procedure. Injection volume was 400 uL. Control animals received the same volume of vehicle. On Day 8, animals received a single intraperitoneal injection of 2.5 mg/kg lipopolysaccharide (LPS; Sigma Cat #L-2880) and animals were then monitored by oximeter (MouseOx, Starr Life Sciences) for 4 hours, when respiratory distress (breath distension*breaths/min) was assessed relative to baseline. This was followed by sacrifice and tissue collection as in the published protocol, except that bronchoalveolar lavage (BAL) was collected and cells were recovered from BAL by centrifugation. These cells were stained with fluorescently-labeled antibodies for flow cytometry in order to ascertain granulocyte counts, as shown below. Results of the peptide comparison are presented in the table below. *p<0.05 vs “B” control. #p<0.05 vs “V” group.

[6] = Day 1, burn + 1 mg/kg peptide plus equimolar ferric iron, subcutaneous once daily
[7] = Day 8, after LPS, burn + 1 mg/kg peptide days 1-7

CCCCCCCCCC(=O)N[C@@H](CCCCN)C(=O)N[C@@H](CCCCN)C(=O)NCC(=O)N[C@@H](Cc1ccccc1)C(=O)N[C@@H](Cc1ccc(O)cc1)C(=O)N[C@@H](CCCCN)C(=O)N[C@@H](CCCCN)C(=O)N[C@@H](CCCCN)C(=O)N[C@@H](CCC(N)=O)C(=O)N[C@@H](CS)C(=O)N[C@@H](CCCNC(=N)N)C(=O)N1CCC[C@H]1C(=O)N[C@@H](CO)C(=O)N[C@@H](CCCCN)C(=O)NCC(=O)N[C@@H](CCCNC(=N)N)C(=O)N[C@@H](CCCCN)C(=O)N[C@@H](CCCNC(=N)N)C(=O)NCC(=O)N[C@@H](Cc1ccccc1)C(=O)N[C@@H](CS)C(=O)N[C@@H](Cc1c[nH]c2ccccc12)C(=O)O [imm3dec] (Decanoyl-KKGFYKKKQCRPSKGRKRGFCW-OH; C-terminus assumed)
COL1 immunoreactivity in supernatants, control (buffer) set to 100 [1]: 114

CCCC(CCC)C(=O)N[C@@H](CCCCN)C(=O)N[C@@H](CCCCN)C(=O)NCC(=O)N[C@@H](Cc1ccccc1)C(=O)N[C@@H](Cc1ccc(O)cc1)C(=O)N[C@@H](CCCCN)C(=O)N[C@@H](CCCCN)C(=O)N[C@@H](CCCCN)C(=O)N[C@@H](CCC(N)=O)C(=O)N[C@@H](CS)C(=O)N[C@@H](CCCNC(=N)N)C(=O)N1CCC[C@H]1C(=O)N[C@@H](CO)C(=O)N[C@@H](CCCCN)C(=O)NCC(=O)N[C@@H](CCCNC(=N)N)C(=O)N[C@@H](CCCCN)C(=O)N[C@@H](CCCNC(=N)N)C(=O)NCC(=O)N[C@@H](Cc1ccccc1)C(=O)N[C@@H](CS)C(=O)N[C@@H](Cc1c[nH]c2ccccc12)C(=O)O [imm3vlp] ({Pentanoyl(2-Pr)}-KKGFYKKKQCRPSKGRKRGFCW-OH; C-terminus assumed)
COL1 immunoreactivity in supernatants, control (buffer) set to 100 [1]: 157**

CC(C)[C@H](NC(=O)[C@H](Cc1ccccc1)NC(=O)[C@H](Cc1c[nH]c2ccccc12)NC(=O)[C@H](CS)NC(=O)[C@H](Cc1ccccc1)NC(=O)CNC(=O)[C@H](CCCNC(=N)N)NC(=O)[C@H](CCCCN)NC(=O)[C@H](CCCNC(=N)N)NC(=O)CNC(=O)[C@H](CCCCN)NC(=O)[C@H](CO)NC(=O)[C@@H]1CCCN1C(=O)[C@H](CCCNC(=N)N)NC(=O)[C@H](CS)NC(=O)[C@H](CCC(N)=O)NC(=O)[C@H](CCCCN)NC(=O)[C@H](CCCCN)NC(=O)[C@H](CCCCN)NC(=O)[C@H](Cc1ccc(O)cc1)NC(=O)[C@H](Cc1ccccc1)NC(=O)CNC(=O)[C@H](CCCCN)NC(=O)[C@@H](N)CCCCN)C(=O)N[C@@H](CO)C(=O)O [immX3FVS] (H-KKGFYKKKQCRPSKGRKRGFCWFVS-OH; N-terminus and C-terminus assumed)
Ferric iron binding, fluorescence standardized to immX3AVD control peptide (100), Avg ± SD [2]: 78.3 ± 6.5**

(bex)-KKGFYKKKQCRPSKGRKRGFCW (not fully specified (N-terminus); printed as (bex)-KKGFYKKKQCRPSKGRKRGFCW; cysteine pairing not given here) [imm3bex]
COL1 immunoreactivity in supernatants, control (buffer) set to 100 [1]: 102

(cin)-KKGFYKKKQCRPSKGRKRGFCW ({cinnamic acid}-KKGFYKKKQCRPSKGRKRGFCW; cysteine pairing not given here) [imm3cin, imm3 N-terminally conjugated with cinnamic acid]
COL1 immunoreactivity in supernatants, control (buffer) set to 100 [1]: 106

(isf)-KKGFYKKKQCRPSKGRKRGFCW ({isoferulic acid}-KKGFYKKKQCRPSKGRKRGFCW; cysteine pairing not given here) [imm3isf, imm3 N-terminally conjugated with isoferulic acid]
COL1 immunoreactivity in supernatants, control (buffer) set to 100 [1]: 131*

(rhn)-KKGFYKKKQCRPSKGRKRGFCW (rhein-KKGFYKKKQCRPSKGRKRGFCW; cysteine pairing not given here) [imm3rhn, imm3 N-terminally conjugated with rhein]
COL1 immunoreactivity in supernatants, control (buffer) set to 100 [1]: 68**

AFNSYELGSKGFYKKKQCRPSKGRKRGFCW [imm3K9]
COL1 immunoreactivity in supernatants, control (buffer) set to 100 [1]: 155**

AFNSYELGSKGFYKKKQCRPSKGRKRGFCWAVDKY [imm3K9c]
COL1 immunoreactivity in supernatants, control (buffer) set to 100 [1]: 158**

AFNSYELGSKKGFYKKKQCRPSKGRKRGFCW [imm3K9.1]
COL1 immunoreactivity in supernatants, control (buffer) set to 100 [1]: 156**

FNSYELGSLKKGFYKKKQCRPSKGRKRGFCW [imm3K8]
COL1 immunoreactivity in supernatants, control (buffer) set to 100 [1]: 98

KKGFYKKKQCRPSKGRKRGFCW(dS)(dV)(dD) (KKGFYKKKQCRPSKGRKRGFCW[dS][dV][dD]; cysteine pairing not given here) [immX3dSdVdD]
Ferric iron binding, fluorescence standardized to immX3AVD control peptide (100), Avg ± SD [2]: 133.6±

KKGFYKKKQCRPSKGRKRGFCW[dA]VD (cysteine pairing not given here) [immX3dAVD]
Ferric iron binding, fluorescence standardized to immX3AVD control peptide (100), Avg ± SD [2]: 108.1 ± 1.5

KKGFYKKKQCRPSKGRKRGFCW[dA][dV][dD] (cysteine pairing not given here) [immX3dAdVdD]
Ferric iron binding, fluorescence standardized to immX3AVD control peptide (100), Avg ± SD [2]: 102.4 ± 9.1 | Hyaluronate binding, counts normalized for immX3 peptide binding=100 [3]: 104.2 ± 14.7 | Heparin binding, counts normalized for immX3 peptide binding=100 [4]: 55.5 ± 5.7**

RKGFYKRKQCKPSRGRKRGICWAVD [immX5AVD]
Ferric iron binding, fluorescence standardized to immX3AVD control peptide (100), Avg ± SD [2]: 88.1 ± 14.2 | Hyaluronate binding, counts normalized for immX3 peptide binding=100 [3]: 113.9 ± 15.7 | Heparin binding, counts normalized for immX3 peptide binding=100 [4]: 68.7 ± 26.2

RNGNFHPKQCHPALDGQRGKCWAVD [immX4AVD]
Ferric iron binding, fluorescence standardized to immX3AVD control peptide (100), Avg ± SD [2]: 1.2 ± 1.3** | Hyaluronate binding, counts normalized for immX3 peptide binding=100 [3]: 61.1 ± 34.1 | Heparin binding, counts normalized for immX3 peptide binding=100 [4]: 7.3 ± 17.1

SLNPEWNETKGFYKKKQCRPSKGRKRGFCW[dA][dV][dD] (cysteine pairing not given here) [immX3K1dAdVdD]
Ferric iron binding, fluorescence standardized to immX3AVD control peptide (100), Avg ± SD [2]: 108.2 ± 6.6 | Hyaluronate binding, counts normalized for immX3 peptide binding=100 [3]: 101.9 ± 16.4 | Heparin binding, counts normalized for immX3 peptide binding=100 [4]: 56.0 ± 7.3**

Traumatin-3N1A: a longer peptide also containing the immX extension (SEQ ID NO:35) (RGVTEDYLRLETLVQKVVSPYLKGFYKKKQCRPSKGRKRGFCWAVD)
Plasma IL-6 (pg/ml) [5, 6]: 22.5 ± 11*^ pg/ml | Plasma albumin mg/ml (24 hr IR) [5, 6]: 7.6 ± 0.9* mg/ml | Change in body weight (Pct vs Day 1) ([5]; Day 5, burn + 1 mg/kg peptide plus equimolar ferric iron, subcutaneous once daily): −5.3 ± 3.5* Pct | Respiratory distress (Gp. “S” = 100) ([5]; Day 8, 4 hours after LPS, burn + 1 mg/kg peptide days 1-7): 197 ± 39*# | Wet/dry lung weight (corrected for body weight) ([5]; Day 8, after LPS 2.5 mg/kg ip, burn + 1 mg/kg peptide days 1-7): 6.74 ± 0.61* | BAL fluid IL1-beta (pg/ml) [5, 7]: 45.7 ± 24*# pg/ml | Plasma OHDG (ng/ml) [5, 7]: 1.24 ± 0.4* ng/ml | Plasma creatinine (mg/dL) [5, 7]: 0.64 ± 0.2* mg/dL
